Results from PMC8704491, “Prothoracicostatic Activity of the Ecdysis-Regulating Neuropeptide Crustacean Cardioactive Peptide (CCAP) in the Desert Locust” (International Journal of Molecular Sciences, 2021).

Experiments:
[1] = system: heartbeat and skeletal muscles; set-up: method as in PMID 9151755, PMID 18835439, PMID 16968777; settings: released into hemolymph during ecdysis; ref [14],[15],[33]; cited from earlier work
[2] = system: Schgr-CCAPR-3; assay: aequorin bioluminescence assay, CHO-PAM28 cells; format: cell-based, Schistocerca gregaria; settings: CHO-PAM28 cells lacking Gα16, aequorin; three independent experiments, in triplicate
Text: (§1) To deorphanize the three GPCRs, they were heterologously expressed in Chinese hamster ovary (CHO)-WTA11 cells, which stably express aequorin and a promiscuous Gα16 subunit. […] Intracellular signaling of Schgr-CCAPR-1, -2 and -3 was investigated in Schgr-CCAPR-expressing cells lacking the promiscuous Gα16 subunit (CHO-PAM28 cells) or co-expressing a cyclic AMP (cAMP) response element (CRE)-luciferase reporter (human embryonic kidney (HEK) 293T). In Schgr-CCAPR expressing CHO-PAM28 cells, Schgr-CCAP induced dose-dependent aequorin-based bioluminescent responses, with EC50 values in the subnanomolar range: 0.7 nM, 0.2 nM and 0.5 nM for Schgr-CCAPR-1, -2 and -3, respectively (Figure S4A).
(§2) Aequorin and CRE(6x)-luc reporter assays, as well as maintenance of the cell cultures and cell transfections, were carried out as previously described. […] Minimum bioluminescence values correlate with the signal obtained in the blank condition (without exposure to S. gregaria peptides). Calculations were performed using the output file from the Microwin software (Berthold Technologies, Bad Wildbad, Germany) in Excel (Microsoft). Half-maximal effective concentrations (EC50) were determined with the PRISM software (Graphpad version 6.03) using non-linear regression, log(agonist) vs. normalized response, applied to a sigmoidal dose-response model. […]
(§3) S c h g r-C C A P R -1 E C5 0 = 0 ,7 n M
(§4) S c hg r-C C A P R -2 E C5 0 = 0 ,2 n M
(§5) S c h g r-C C A P R -3 E C5 0 = 0 ,5 n M
(§6) S c h g r-C C A P R -1 E C5 0 = 0 ,0 1 n M
(§7) S c hg r-C C A P R -2 E C5 0 = 1 ,2 n M
(§8) S c hg r-C C A P R -3 E C5 0 = 0 ,0 5 n M
(§9) Dose-response curves induced by CCAP for cell -based receptor activity assays A) in CHO-PAM28-Schgr -CCAPR-1, -2 or -3 cells and B) in HEK293T Schgr -CCAPR-1, -2 or -3 cells, co - transfected with CRE(6x)-Luc construct. These cell-based receptor activity data were obtained from three independent experiments. The bioluminescence was measured in triplicate per concentration of Schgr -CCAP and per transfection. Error bars represent the S.E.M and the 100 % level refers to the maximal response level. […]

[3] = system: Schgr-CCAPR-1; assay: aequorin bioluminescence assay, CHO-PAM28 cells; format: cell-based, Schistocerca gregaria; settings: CHO-PAM28 cells lacking Gα16, aequorin; three independent experiments, in triplicate
Text: as §1, §2, §3, §4, §5, §6, §7, §8, §9

[4] = system: Schgr-CCAPR-2; assay: aequorin bioluminescence assay, CHO-PAM28 cells; format: cell-based, Schistocerca gregaria; settings: CHO-PAM28 cells lacking Gα16, aequorin; three independent experiments, in triplicate
Text: as §1, §2, §3, §4, §5, §6, §7, §8, §9

[5] = system: Schgr-CCAPR-3; assay: aequorin bioluminescence assay, CHO-WTA11 cells; format: cell-based, Schistocerca gregaria
Text: as §1
(§10) Figure 2 Aequorin-based bioluminescent responses in cell-based receptor activity assays. (A) Dose-response curves induced by CCAP in CHO-WTA11-Schgr-CCAPR-1, -2 or -3 cells. The EC50 values are indicated. (B) Results for aequorin-based bioluminescent response induced in CHO-WTA11-Schgr-CCAPR-1, -2 and -3 cells upon addition of 1 µM of peptide. These cell-based receptor activity data were obtained from three independent experiments. The cell-based assays were executed in three independent transfections. Error bars in dose-response curves represent the S.E.M and the 100% level refers to the maximal response level. Agonist selectivity was normalized to bioluminescent response acquired by exposure to CCAP. The zero-response level corresponds to treatment with BSA medium only. Abbreviations: Schgr = Schistocerca gregaria, CCAP = crustacean cardioactive peptide, CCAPR = CCAP receptor, CCHa = CCHamide, ASTC = allostatin C, ASTCCC = allostatin CCC, Crz = corazonin, AKH I(I) = adipokinetic hormone I(I), INT = inotocin.
(§11) Aequorin and CRE(6x)-luc reporter assays, as well as maintenance of the cell cultures and cell transfections, were carried out as previously described. […] Minimum bioluminescence values correlate with the signal obtained in the blank condition (without exposure to S. gregaria peptides). Calculations were performed using the output file from the Microwin software (Berthold Technologies, Bad Wildbad, Germany) in Excel (Microsoft). Half-maximal effective concentrations (EC50) were determined with the PRISM software (Graphpad version 6.03) using non-linear regression, log(agonist) vs. normalized response, applied to a sigmoidal dose-response model.

[6] = system: Schgr-CCAPR-1; assay: aequorin bioluminescence assay, CHO-WTA11 cells; format: cell-based, Schistocerca gregaria
Text: as §1, §10, §11

[7] = system: Schgr-CCAPR-2; assay: aequorin bioluminescence assay, CHO-WTA11 cells; format: cell-based, Schistocerca gregaria
Text: as §1, §10, §11

[8] = system: Schgr-CCAPR-3; assay: CRE(6x)-luc reporter assay, HEK-293T cells; format: cell-based, Schistocerca gregaria; settings: CRE-controlled luciferase, three independent experiments, in triplicate
Text: as §1, §2, §3, §4, §5, §6, §7, §8, §9

[9] = system: Schgr-CCAPR-1; assay: CRE(6x)-luc reporter assay, HEK-293T cells; format: cell-based, Schistocerca gregaria; settings: CRE-controlled luciferase, three independent experiments, in triplicate
Text: as §1, §2, §3, §4, §5, §6, §7, §8, §9

[10] = system: Schgr-CCAPR-2; assay: CRE(6x)-luc reporter assay, HEK-293T cells; format: cell-based, Schistocerca gregaria; settings: CRE-controlled luciferase, three independent experiments, in triplicate
Text: as §1, §2, §3, §4, §5, §6, §7, §8, §9

[11] = system: prothoracic gland (PG) explants; assay: ecdysteroid secretion by prothoracic gland explants; set-up: species or system Schistocerca gregaria; settings: 1 µM CCAP, 24 h, 50 µL Grace's insect medium, 30 °C, PG from N5IW nymphs, n = 16 vs n = 15, p < 0.001
Experimental: Figure 6 Ecdysteroid secretion by prothoracic gland (PG) explants incubated for 24 h in a volume of 50 µL Grace’s insect medium (GI) with or without 1 µM CCAP. PGs were micro-dissected from fifth instar (N5) nymphs at N5IW (inter-wing distance of at least 1.8 mm; GI, n = 15; GI + 1 µM CCAP, n = 16) Each data point represents 20E-equivalents secreted by PG from a single nymph. Mean ± S.E.M. is also indicated per group. Significant difference (p < 0.001) is indicated by asterisks (***) and was calculated by an unpaired t-test with Welch’s correction. Used abbreviations: CCAP = crustacean cardioactive peptide and GI = Grace’s Insect Medium.
To correlate the locust’s morphology to the nymphal ecdysteroid titer that regulates molting, hemolymph was collected as well at the described sampling moments. 20 µL hemolymph from each N5 animal was collected into 280 µL cold ethanol. Each sample was further processed as previously described. The ecdysteroid titers were subsequently quantified using the 20-Hydroxyecdysone ELISA kit (Bertin Technologies, Montigny-le-Bretonneux, France), according to the manufacturer’s protocol.
PGs of N5IW nymphs were micro-dissected in S. gregaria saline solution and incubated in 50 µL Grace’s Insect medium (GI) (Invitrogen, Waltham, MA, USA) containing 1 µM CCAP or in GI without peptide. […]

[12] = system: locust oviducts; settings: Ca^2+-dependent, ref [32]; cited from earlier work
Text: The three Schgr-CCAPRs show high sequence similarity to deorphanized CCAP receptors of D. melanogaster, T. castaneum and R. prolixus. Although only one CCAP receptor has been identified in many insect species, there are other species, such as S. gregaria, which have multiple isoforms. […] This is a commonly occurring feature during evolution of GPCR genes in both vertebrates and invertebrates. To supp ...

[13] = system: 20E levels; settings: daily injection, adult American cockroach; ref [35]; cited from earlier work
Experimental: High relative transcript levels of the Schgr-CCAPRs were determined in the PG at N5WD. […] From these observations we conclude that CCAP acts directly on the prothoracic gland as a prothoracicostatic factor. In contrast to the ecdysiostatic activity of CCAP in S. gregaria nymphs, dai ...

[14] = system: Schgr-CCAPpre depleted nymphs; assay: rescue of Schgr-CCAPpre depleted nymphs by CCAP injection; format: in vivo, Schistocerca gregaria; settings: daily 0.92 pg CCAP in 4 µL saline throughout N5; 18/30; vs saline; p < 0.05, Fisher's exact test
Experimental: Figure 4 Phenotypic effect of Schgr-CCAPpre or Schgr-CCAPR-1, -2 and/or -3 depletion on ecdysis. (A) Percentage of nymphs displaying ecdysis arrest at nymphal-adult (N5-Ad) molt (n = 25, per construct). Nymphs were injected at N4D0, N4D4, N5D1, N5D4 and N5D7 with 400 ng of dsGFP (control), dsCCAPpre, dsCCAPR1/2/3a, dsCCAPR1/2/3b, dsCCAPR-1, dsCCAPR-2 or dsCCAPR-3. (B) Percentage of nymphs displaying ecdysis arrest at nymphal-nymphal (N4–N5) and N5-Ad molts (n = 25, per construct). Nymphs were injected in late N3, N4D1 and N4D4 with 400 ng of dsGFP (control), dsCCAPpre or dsCCAPR1/2/3a. (C) The timing of ecdysis initiation in dsGFP (control), dsCCAPpre (Schgr-CCAPpre knockdown) and dsCCAPR1/2/3a (Schgr-CCAPRs knockdown) injected nymphs, as observed starting from freshly molted fifth instar nymphs. A log-rank (Mantel-Cox) test was used to check for significant differences in ecdysis initiation between populations. (D) Rescue of Schgr-CCAPpre depleted nymphs (n = 30) by additional daily injections of 0.92 pg CCAP in 4 µL S. gregaria saline in N5. In the control groups, nymphs received dsGFP injections or dsCCAPpre injections (n = 31), with additional daily injections of S. gregaria saline in N5. Significant differences (p < 0.05) are indicated by an asterisk (*) and calculated by the Fisher’s exact test. (E) Ecdysis deficient phenotype (top photos). […]

[15] = 1 µM peptide, normalized to CCAP response
[16] = aequorin and promiscuous Gα16, three independent experiments

**Q.** With crustacean cardioactive peptide [CCAP] as the substance, how does the “heartbeat and contraction of skeletal muscles” value [1] read?
**A.** stimulate heartbeat and contraction of skeletal muscles

**Q.** What about the EC50 [2] of the same substance?
**A.** 0.5 nM

**Q.** And the EC50 [3]?
**A.** 0.7 nM

**Q.** What about the EC50 [4] of the same substance?
**A.** 0.2 nM

**Q.** And the “agonist selectivity, receptor activation” value [5, 15]?
**A.** markedly activated

**Q.** And the EC50 [5, 16]?
**A.** 0.59 nM

**Q.** What about the “agonist selectivity, receptor activation” value [6, 15] of the same substance?
**A.** markedly activated

**Q.** What about the EC50 [6, 16] of the same substance?
**A.** 3.65 nM

**Q.** What about the “agonist selectivity, receptor activation” value [7, 15] of the same substance?
**A.** markedly activated

**Q.** And the EC50 [7, 16]?
**A.** 0.32 nM

**Q.** And the EC50 [8]?
**A.** 0.05 nM

**Q.** And the EC50 [9]?
**A.** 0.01 nM

**Q.** And the EC50 [10]?
**A.** 1.2 nM

**Q.** And the “ecdysteroid secretion (prothoracicostatic activity)” value [11]?
**A.** significant prothoracicostatic activity

**Q.** What about the “ecdysteroid secretion (prothoracicostatic activity)” value ([11]; listed as Schgr-CCAP) of the same substance?
**A.** suppressed ecdysteroid secretion

**Q.** And the oviduct contractions [12]?
**A.** induces Ca^2+-dependent contractions

**Q.** And the 20E levels [13]?
**A.** elevated 20E levels

**Q.** What about the “rescue effect of ecdysis deficiency phenotype” value [14] of the same substance?
**A.** 60%
